Results as given in patent US9790169B2, “IDO inhibitors” (BRISTOL-MYERS SQUIBB COMPANY, priority 2015, dated 2017).

Target: human IDO1 (Homo sapiens, UniProt P14902)
Test: Assessment of human IDO-1 inhibitory activity in HEK cells (human IDO1/HEK293 cells, kynurenine read-out with Ehrlich reagent, absorbance 490 nm)
Assay type: cell-based
Set-up: expressed in transfected cells
Conditions: HEK Human IDO-1 cellular assay
In short: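 Kynurenine output from stably IDO1-transfected HEK293 cells (10,000/well, phenol red-free RPMI, 10% FBS) after 20 h compound exposure at 37 °C. The reaction was stopped with 0.2% TCA and heated 30 min at 50 °C, then the supernatant was mixed with Ehrlich reagent and read at 490 nm. IC50 was set against DMSO and a 500 nM reference standard as 0 and 100% inhibition.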

Sequence of human IDO1 (P14902 whole entry): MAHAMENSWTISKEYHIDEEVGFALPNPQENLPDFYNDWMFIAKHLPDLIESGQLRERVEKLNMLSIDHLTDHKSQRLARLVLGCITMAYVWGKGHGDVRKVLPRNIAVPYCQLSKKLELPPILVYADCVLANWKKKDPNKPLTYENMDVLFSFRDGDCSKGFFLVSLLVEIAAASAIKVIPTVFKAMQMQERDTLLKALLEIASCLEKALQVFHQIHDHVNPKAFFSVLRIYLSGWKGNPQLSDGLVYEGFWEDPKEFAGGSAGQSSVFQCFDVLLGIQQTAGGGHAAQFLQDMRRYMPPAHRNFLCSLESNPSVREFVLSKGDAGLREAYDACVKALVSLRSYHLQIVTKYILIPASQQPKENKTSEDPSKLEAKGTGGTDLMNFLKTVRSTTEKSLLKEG

Row | Compound | IC50 [nM]
1 | CCC(CC(=O)O)c1ccc(N2C[C@@H]3C[C@H]2CN3C(=O)OC(C)(C)C)c(Nc2ccc(C)cc2)c1 (single isomer, unassigned) [Example 445] | < 5
2 | CCN(c1ccc(C(CC(=O)O)c2ccccc2)cc1Nc1ccc2nc(C)sc2c1)C1CCOCC1 (single isomer, unassigned) [Example 579, 3-(4-(ethyl(tetrahydro-2H-pyran-4-yl)amino)-3-((2-methylbenzo[d]thiazol-6-yl)amino)phenyl)-3-phenylpropanoic acid] | > 50
3 | COCC(CC(=O)O)c1ccc(N(CC(C)C)C2CCCCC2)c(NC(=O)Nc2ccc(Cl)cc2F)c1 (racemic) [Example 984, (+/−)-3-(3-(3-(4-Chloro-2-fluorophenyl)ureido)-4-(cyclohexyl(isobutyl)amino)phenyl)-4-methoxybutanoic acid] | < 5
4 | CCOc1ncc(Nc2cc([C@H](CC)CC(=O)O)ccc2N2CCOC[C@@H]2C(C)C)cn1 (single isomer, unassigned) [Example 94] | < 50
5 | CC[C@@H](CC(=O)O)c1ccc(N(CC(C)(C)O)C2CCOCC2)c(Nc2ccc(Cl)cc2)c1 (single isomer, unassigned) [Example 198] | < 5
6 | CCN(c1ccc(C(C)CC(=O)O)cc1Nc1cnc(C)nc1)C1CCOCC1 (single isomer, unassigned) [Example 623, 3-(4-(ethyl(tetrahydro-2H-pyran-4-yl)amino)-3-((2-methylpyrimidin-5-yl)amino)phenyl)butanoic acid] | < 50
7 | CC[C@@H](CC(=O)O)c1ccc(N2CCOC[C@@H]2C(C)C)c(NC(=O)Nc2ccc(C)cc2)c1 (single isomer, unassigned) [Example 74] | > 50
8 | CC[C@H](CC(=O)O)c1ccc(N(CC)C2CCOCC2)c(NC(=O)Nc2ccc(Cl)cc2)c1 (single isomer, unassigned) [Example 531] | < 5
9 | Cc1cc(NC(=O)Nc2cc(C(CC(=O)O)C3CC3)ccc2N(CC(C)C)C2CCOCC2)no1 (racemic) [Example 1200, (+/−)-3-Cyclopropyl-3-(4-(isobutyl(tetrahydro-2H-pyran-4-yl)amino)-3-(3-(5-methylisoxazol-3-yl)ureido)phenyl)propanoic acid] | < 50
10 | COCC(CC(=O)O)c1ccc(N(CC(C)C)C2CCOCC2)c(NC(=O)Nc2ccc(Cl)cc2F)c1 (single isomer, unassigned) [Example 1210, 3-(3-(3-(4-Chloro-2-fluorophenyl)ureido)-4-(isobutyl(tetrahydro-2H-pyran-4-yl)amino)phenyl)-4-methoxybutanoic acid] | < 50
11 | CC(CC(=O)O)c1ccc(N2CCC[C@H]2C(C)(C)O)c(Nc2ccc(Cl)cc2)c1 (single isomer, unassigned) [Example 799] | > 50
12 | CCOc1ccc(Nc2cc([C@@H](CC)CC(=O)O)ccc2N2CCOC[C@@H]2C(C)C)cc1 (single isomer, unassigned) [Example 82] | < 50
13 | COCC(CC(=O)O)c1ccc(N(CC2CC2)C2CCOCC2)c(Nc2ccc3nc(C)sc3c2)c1 (single isomer, unassigned) [Example 689, 3-(4-((cyclopropylmethyl) (tetrahydro-2H-pyran-4-yl)amino)-3-((2-methylbenzo[d]thiazol-6-yl)amino)phenyl)-4-methoxybutanoic acid] | > 50
14 | CC[C@H](CC(=O)O)c1ccc(N(CC(C)(C)O)C2CCCCC2)c(Nc2ccc(C#N)cc2)c1 (single isomer, unassigned) [Example 238] | < 5
15 | Cc1ccc(CC(=O)Nc2cc(C(C)CC(=O)O)ccc2N(CC(C)C)CC(C)C)cc1 (single isomer, unassigned) [Example 953, 3-(4-(Diisobutylamino)-3-(2-(p-tolyl)acetamido)phenyl)butanoic acid] | > 50
16 | CCC(CC(=O)O)c1ccc(N(CC(C)C)C2CCCCC2)c(Nc2ccc(F)cc2)c1 (single isomer, unassigned) [Example 311, 3-(4-(cyclohexyl(isobutyl)amino)-3-((4-fluorophenyl)amino)phenyl)pentanoic acid] | < 5
17 | CCC(CC(=O)O)c1ccc(N(CC)C2CCCOC2)c(NC(=O)Nc2ccc(C)cc2)c1 (single isomer, unassigned) [Example 73 D2, 3-(4-(Ethyl(tetrahydro-2H-pyran-3-yl)amino)-3-(3-(p-tolyl)ureido)phenyl)pentanoic acid] | < 5
18 | CCC(CC(=O)O)c1cc(F)c(N(CC(C)C)CC(C)C)c(NC(=O)Nc2cc(C(F)(F)F)ccc2F)c1 (racemic) [Example 976, (+/−)-3-(4-(diisobutylamino)-3-fluoro-5-(3-(2-fluoro-5-(trifluoromethyl)phenyl)ureido)phenyl)pentanoic acid] | < 50
19 | CCOc1ncc(Nc2cc(C(C)(C)CC(=O)O)ccc2N(CC(C)C)CC(C)C)cn1 [Example 148, 3-(4-(diisobutylamino)-3-((2-ethoxypyrimidin-5-yl)amino)phenyl)-3-methyl butanoic acid] | < 50
20 | C[C@@H]1CN(c2ccc(C(C)(C)CC(=O)O)cc2Nc2ccc(C#N)cc2)C[C@H](C)O1 [Example 731, 3-(3-((4-Cyanophenyl)amino)-4-((2S,6R)-2,6-dimethylmorpholino)phenyl)-3-methylbutanoic acid] | < 50
21 | CC(C)CN(CC(C)C)c1c(F)cc(C(CC(=O)O)c2ccccc2)cc1Nc1ccc(Cl)cc1 (single isomer, unassigned) [Example 129, 3-(3-((4-Chlorophenyl)amino)-4-(diisobutylamino)-5-fluorophenyl)-3-phenylpropanoic acid] | < 50
22 | CCOc1ncc(Nc2cc([C@H](CC)CC(=O)O)ccc2N(CC(C)(C)O)C2CCCCC2)cn1 (single isomer, unassigned) [Example 240] | < 50
23 | CC[C@H](CC(=O)O)c1ccc(N(CC)C2CCOCC2)c(NC(=O)Nc2cc(C)on2)c1 (single isomer, unassigned) [Example 534] | > 50
24 | CCC(CC(=O)O)c1cc(NC(=O)Nc2ccc(C)cc2)c(N(CC(C)C)C2CCCCC2)cc1F (racemic) [Example 951, (+/−)-3-(4-(Cyclohexyl(isobutyl)amino)-2-fluoro-5-(3-(p-tolyl)ureido)phenyl)pentanoic acid] | < 5
25 | CC(CC(=O)O)c1ccc(N(CC(C)(C)O)C2CCCCC2)c(Nc2ccc(Cl)c(OCC(F)(F)F)c2)c1 (single isomer, unassigned) [Example 51, 3-(3-((4-chloro-3-(2,2,2-trifluoroethoxy)phenyl)amino)-4-(cyclohexyl(2-hydroxy-2-methylpropyl)amino)phenyl)butanoic acid] | > 50
26 | CC[C@H](CC(=O)O)c1ccc(N2CCC[C@H]2C(C)(C)F)c(NC(=O)Nc2ccc(Cl)cc2F)c1 (single isomer, unassigned) [Example 791] | < 50
27 | CCOc1ccc(NC(=O)Nc2cc(C(CC)CC(=O)O)c(F)cc2N(CC(C)C)C2CCCCC2)cc1 (racemic) [Example 952, (+/−)-3-(4-(Cyclohexyl(isobutyl)amino)-5-(3-(4-ethoxyphenyl)ureido)-2-fluorophenyl)pentanoic acid] | < 5

Continued, values first:

Row | IC50 [nM] | Compound
28 | > 50 | COCC(CC(=O)O)c1ccc(N(CC2CC2)C2CCOCC2)c(Nc2ccc(C(N)=O)nc2)c1 (single isomer, unassigned) [Example 688, 3-(3-((6-carbamoylpyridin-3-yl)amino)-4-((cyclopropylmethyl) (tetrahydro-2H-pyran-4-yl)amino)phenyl)-4-methoxybutanoic acid]
29 | > 50 | CC[C@@H](CC(=O)O)c1ccc(N(CC)C2CCOCC2)c(NC(=O)Nc2cc(C)on2)c1 (single isomer, unassigned) [Example 497]
30 | < 50 | Cc1ccc(CC(=O)Nc2cc(C(C)CC(=O)O)ccc2N(CC(C)C)CC(C)C)cc1 (single isomer, unassigned) [Example 954, 3-(4-(Diisobutylamino)-3-(2-(p-tolyl)acetamido)phenyl)butanoic acid]
31 | > 50 | CCN(c1ccc([C@H](COC)CC(=O)O)cc1NC(=O)Nc1cc(C)no1)C1CCOCC1 (single isomer, unassigned) [Example 440]
32 | < 50 | CCOc1ccc(Nc2cc(C(C)CC(=O)O)ccc2N(CC(C)(C)O)C2CCCCC2)c(F)c1 (single isomer, unassigned) [Example 56, 3-(4-(cyclohexyl(2-hydroxy-2-methylpropyl)amino)-3-((4-ethoxy-2-fluorophenyl)amino)phenyl)butanoic acid]
33 | < 5 | CC[C@H](CC(=O)O)c1ccc(N2CCC[C@@H]2C(C)(C)O)c(Nc2ccc(Cl)cc2)c1 (single isomer, unassigned) [Example 780]
34 | < 5 | CCC(CC(=O)O)c1ccc(N(CC(C)C)C2CCCCC2)c(Nc2ccc(Cl)cc2)c1 (single isomer, unassigned) [Example 308, 3-(3-((4-chlorophenyl)amino)-4-(cyclohexyl (isobutyl)amino)phenyl) pentanoic acid]
35 | < 50 | CCOc1ncc(Nc2cc(C(C)(C)CC(=O)O)ccc2N(CC)C2CCOCC2)cn1 [Example 159, 3-(3-((2-Ethoxypyrimidin-5-yl)amino)-4-(ethyl(tetrahydro-2H-pyran-4-yl)amino)phenyl)-3-methylbutanoic acid]
36 | < 50 | COCC(CC(=O)O)c1ccc(N(CC(C)C)CC(C)C)c(NC(=O)Nc2ccc(C)cc2)c1 (single isomer, unassigned) [993-1]
37 | < 5 | CC[C@H](CC(=O)O)c1ccc(N2CCOC[C@@H]2C(C)C)c(Nc2ccc(C#N)cc2)c1 (single isomer, unassigned) [Example 92]
38 | < 5 | CCOc1cnc(Nc2cc(C(C)CC(=O)O)ccc2N(CC)C2CCOCC2)cn1 (single isomer, unassigned) [Example 618, 3-(3-((5-ethoxypyrazin-2-yl)amino)-4-(ethyl (tetrahydro-2H-pyran-4-yl)amino)phenyl)butanoic acid]
39 | < 50 | CC(CC(=O)O)c1ccc(N2CCC[C@H]2C(C)(C)O)c(Nc2ccc(Cl)cc2)c1 (single isomer, unassigned) [Example 804]
